This is an account of results in ChEMBL document CHEMBL1201862, “PubChem BioAssay data set” (2004).

Among the test systems are NCI-H23; HT-29; Malme-3M; OVCAR-4; SK-MEL-2; RXF 393; MOLT-4; A498; SNB-75; OVCAR-5; NCI-H460; SK-OV-3; U-251; SK-MEL-28; M14; UACC-257; CAKI-1; SK-MEL-5; COLO 205; SW-620.
Holding throughout (assay): growth of human tumour cells (NCI), 48 h

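Exposure lasted 48 hours, with cells grown in 96-well plates and compounds tested at five concentrations. The concentration for 50% growth inhibition is given as GI50.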 Calls of active or inactive are those of the source. Cut-off read from the data, not from the text of the source: active = GI50 up to about 1.1 µM and inactive = higher.

Turning to `Cc1ccc(SSCCCCCS(=O)O)cc1`, the GI50 with NCI-H23 was 28.2 µM (inactive); with HT-29, 37.8 µM (inactive); in the assay with Malme-3M, 18.3 µM (inactive); with OVCAR-4, 40 µM (inactive); in the assay with SK-MEL-2, 25.8 µM (inactive); in the assay with RXF 393, 15.4 µM (inactive). In addition, the GI50 with MOLT-4 is 6.34 µM (inactive); in the assay on A498, 19 µM (inactive); in the assay with SNB-75 it was 29.6 µM (inactive); in the assay on OVCAR-5, > 100 µM (inactive); in the assay on NCI-H460, 48.5 µM (inactive); with SK-OV-3, > 100 µM (inactive). Besides, the GI50 in the assay on U-251 is 11 µM (inactive); in the assay with SK-MEL-28, 46.5 µM (inactive); in the assay with M14 it was 40.4 µM (inactive); with UACC-257, 31.2 µM (inactive).
On to `CC(=O)Oc1ccccc1[C@H]1CC(=O)C[C@H](c2ccccc2OC(C)=O)C12C(=O)c1ccccc1C2=O`, for which the GI50 in the assay on NCI-H23 was 26.4 µM (inactive); in the assay on HT-29 it was 29.2 µM (inactive); with Malme-3M it was 40 µM (inactive); in the assay with OVCAR-4 it was 65.6 µM (inactive); in the assay with CAKI-1, 20.9 µM (inactive); in the assay on SK-MEL-2, 23.5 µM (inactive). The GI50 with SK-MEL-5 is 22.4 µM (inactive); in the assay with COLO 205 it was 22.3 µM (inactive); in the assay on RXF 393, 24.6 µM (inactive); in the assay on MOLT-4 it was 17.8 µM (inactive); with A498, 25.6 µM (inactive); in the assay on SNB-75, 17.9 µM (inactive). The GI50 with OVCAR-5 was 44.2 µM (inactive); in the assay on NCI-H460, 19.1 µM (inactive); in the assay with SK-OV-3 it was 43 µM (inactive); in the assay with U-251, 38.9 µM (inactive); in the assay with SK-MEL-28 it was 17 µM (inactive); in the assay with M14 it was 19.9 µM (inactive).
Consider `CSCC[C@@H](NC(=O)[C@H](CC(C)C)NC(=O)C(Cc1cnc[nH]1)NC(=O)CNC(=O)[C@@H](NC(=O)[C@H](C)NC(=O)[C@H](Cc1cn(C=O)c2ccccc12)NC(=O)[C@H](CCC(N)=O)NC(=O)[C@@H](N)CC(N)=O)C(C)C)C(N)=O` (stereo not given in full), for which the GI50 in the assay with NCI-H23, in the assay on HT-29, with Malme-3M, in the assay on OVCAR-4, in the assay with SK-MEL-2 and in the assay on SK-MEL-5 was > 100 µM (inactive) each time. In addition, the GI50 with SW-620, with COLO 205, with RXF 393, in the assay with MOLT-4, in the assay on A498 and in the assay on SNB-75 was > 100 µM (inactive) throughout. For the same molecule, the GI50 in the assay with OVCAR-5, in the assay with NCI-H460, in the assay on SK-OV-3, in the assay on U-251, with SK-MEL-28 and in the assay with UACC-257 was > 100 µM (inactive) throughout.
Consider `NCCCCCC(CCN)SCC1OC(n2cnc3c(N)ncnc32)C(O)C1O` (stereo not given), for which the GI50 in the assay with NCI-H23 was 764 µM (inactive); with HT-29, 569 µM (inactive); with Malme-3M, > 1280 µM (inactive); in the assay with OVCAR-4, > 1440 µM (inactive); in the assay with CAKI-1 it was 411 µM (inactive); with SK-MEL-2, > 1500 µM (inactive). Moreover, the GI50 with SK-MEL-5 was > 1110 µM (inactive); with SW-620, > 1500 µM (inactive); in the assay with COLO 205, > 798 µM (inactive); in the assay on RXF 393 it was 1060 µM (inactive); in the assay with MOLT-4 it was 551 µM (inactive); in the assay with A498, > 1500 µM (inactive). The GI50 in the assay on SNB-75 was > 1500 µM (inactive); with OVCAR-5, > 1500 µM (inactive); in the assay on NCI-H460, 379 µM (inactive); in the assay on SK-OV-3, 927 µM (inactive); with U-251, 687 µM (inactive); with SK-MEL-28, 578 µM (inactive). In addition, the GI50 in the assay on UACC-257 was > 1260 µM (inactive).
Take `COc1ccccc1-c1cc(O)c2cc(C)cnc2n1`: the GI50 in the assay with NCI-H23 was 40 µM (inactive); with HT-29 it was 23.1 µM (inactive); in the assay on Malme-3M, 24.7 µM (inactive); in the assay with OVCAR-4 it was > 100 µM (inactive); in the assay with CAKI-1 it was 19.3 µM (inactive); in the assay on SK-MEL-2, 25.2 µM (inactive). In addition, the GI50 in the assay with SW-620 is 24.7 µM (inactive); in the assay with COLO 205 it was 14.8 µM (inactive); in the assay on RXF 393, 33.4 µM (inactive); in the assay on MOLT-4, 31.5 µM (inactive); with A498, 24.9 µM (inactive); in the assay with OVCAR-5, 80.5 µM (inactive). Also, the GI50 in the assay with SK-OV-3 was 25.3 µM (inactive); with SK-MEL-28, 22.6 µM (inactive); with M14, 37.9 µM (inactive); with UACC-257, 38 µM (inactive).
Regarding `COc1ccccc1/C=C1\S/C(=N/Nc2nc(C)c(C(C)=O)s2)NC1=O`, the GI50 with NCI-H23 is 42.1 µM (inactive); in the assay on HT-29, 42.9 µM (inactive); in the assay with OVCAR-4 it was > 100 µM (inactive); in the assay with CAKI-1, 57.3 µM (inactive); with SK-MEL-2 it was 64.1 µM (inactive); in the assay with SK-MEL-5 it was 19.7 µM (inactive). The GI50 in the assay on SW-620 is 46.1 µM (inactive); with COLO 205, 22.9 µM (inactive); in the assay on RXF 393, 69 µM (inactive); in the assay on MOLT-4, 35.6 µM (inactive); in the assay on A498, 22.8 µM (inactive); with SNB-75, 24.5 µM (inactive). In addition, the GI50 in the assay on OVCAR-5 is 83 µM (inactive); in the assay with NCI-H460, 55.7 µM (inactive); in the assay with SK-OV-3, 74.1 µM (inactive); in the assay on U-251, 33.7 µM (inactive); in the assay on SK-MEL-28 it was 40.6 µM (inactive); in the assay on M14, 74 µM (inactive). Besides, in the assay with UACC-257, the GI50 is 49.8 µM (inactive).
On to `Cc1ccc(N2Cc3c(ccc4ccccc34)OP2(=S)N2CCCC2)cc1` (stereo not given), for which the GI50 in the assay with NCI-H23, in the assay on HT-29, in the assay on Malme-3M, with OVCAR-4, with CAKI-1 and in the assay with SK-MEL-2 was > 100 µM (inactive) each time. The GI50 with SK-MEL-5 is > 100 µM (inactive); in the assay with SW-620, > 100 µM (inactive); in the assay on COLO 205 it was > 100 µM (inactive); in the assay on RXF 393, > 100 µM (inactive); in the assay with MOLT-4 it was > 44.5 µM (inactive); in the assay with A498 it was > 56.5 µM (inactive). The GI50 with SNB-75, in the assay on OVCAR-5, in the assay with NCI-H460, in the assay with SK-OV-3, in the assay with U-251 and in the assay on SK-MEL-28 was > 100 µM (inactive) each time. Moreover, the GI50 in the assay on UACC-257 is > 100 µM (inactive).
On to `Cc1[nH]c(=O)[nH]c(=O)c1/C=C/C(=O)NC(CO)CC(C)C` (stereo not given), for which the GI50 is > 362 µM (inactive) with NCI-H23; 222 µM (inactive) with HT-29; 233 µM (inactive) with Malme-3M; 214 µM (inactive) in the assay on OVCAR-4; 146 µM (inactive) in the assay with CAKI-1; > 305 µM (inactive) with SK-MEL-2. For the same molecule, the GI50 was > 375 µM (inactive) with SK-MEL-5; 351 µM (inactive) in the assay with SW-620; 242 µM (inactive) in the assay with COLO 205; > 375 µM (inactive) in the assay on RXF 393; 237 µM (inactive) in the assay with MOLT-4; > 375 µM (inactive) with A498. Also, the GI50 in the assay with SNB-75 is 226 µM (inactive); in the assay with OVCAR-5, > 265 µM (inactive); in the assay with NCI-H460 it was 163 µM (inactive); in the assay on SK-OV-3 it was > 300 µM (inactive); in the assay on U-251 it was > 343 µM (inactive); in the assay on SK-MEL-28, 305 µM (inactive). The GI50 in the assay with UACC-257 was > 375 µM (inactive).
Turning to `O=NN(CC1(O)OCC(O)C(O)C1O)C(Cc1c[nH]c2ccccc12)C(=O)O` (stereo not given), the GI50 in the assay on NCI-H23, in the assay on HT-29, in the assay on Malme-3M, with SK-MEL-2, in the assay with SK-MEL-5 and with SW-620 was > 100 µM (inactive) each time. Moreover, the GI50 with COLO 205, with RXF 393, in the assay on MOLT-4, in the assay on A498, with SNB-75 and in the assay on OVCAR-5 was > 100 µM (inactive) throughout. In addition, the GI50 in the assay with NCI-H460, in the assay with SK-OV-3, in the assay on U-251, with SK-MEL-28, in the assay on M14 and in the assay with UACC-257 was > 100 µM (inactive) each time.
Regarding `Cc1ccc2c3c1O[C@H]1c4[nH]c5ccccc5c4C[C@@]4(O)[C@@H](C2)N(CC2CC2)CC[C@]314`, the GI50 with NCI-H23 is 19.7 µM (inactive); in the assay on HT-29, 4.42 µM (inactive); in the assay with Malme-3M, 14.5 µM (inactive); in the assay on OVCAR-4, 0.166 µM (active); with CAKI-1 it was 16.6 µM (inactive); in the assay with SK-MEL-2, 17.1 µM (inactive). In addition, the GI50 is 14.1 µM (inactive) with SK-MEL-5; 10.9 µM (inactive) in the assay on SW-620; 14.3 µM (inactive) in the assay with COLO 205; 7.38 µM (inactive) in the assay with RXF 393; 12.2 µM (inactive) with MOLT-4; 17.1 µM (inactive) in the assay with A498. In addition, the GI50 in the assay on OVCAR-5 was 18.7 µM (inactive); with NCI-H460, 15.2 µM (inactive); in the assay on SK-OV-3, 16.4 µM (inactive); with U-251, 14.4 µM (inactive); in the assay on SK-MEL-28 it was 12.6 µM (inactive); in the assay on M14 it was 16.8 µM (inactive). Moreover, in the assay on UACC-257, the GI50 is 16.7 µM (inactive).
Turning to `COc1ccc(-c2cc(-c3ccccc3)c3c(n2)-c2ccccc2NC(=O)C3)cc1`, the GI50 in the assay on NCI-H23 was > 100 µM (inactive); in the assay with HT-29 it was 12.1 µM (inactive); with Malme-3M, 17.4 µM (inactive); with OVCAR-4 it was 3.64 µM (inactive); in the assay with CAKI-1, 40.9 µM (inactive); in the assay on SK-MEL-2 it was 32.7 µM (inactive). Moreover, the GI50 was 23.8 µM (inactive) with SK-MEL-5; > 100 µM (inactive) with SW-620; > 100 µM (inactive) in the assay on COLO 205; 30.2 µM (inactive) in the assay on RXF 393; > 100 µM (inactive) with A498; 1.19 µM (inactive) in the assay with SNB-75. Also, the GI50 in the assay on OVCAR-5 was > 100 µM (inactive); in the assay with NCI-H460, 25.9 µM (inactive); with SK-OV-3 it was 39.9 µM (inactive); with U-251, 22.5 µM (inactive); with SK-MEL-28 it was > 100 µM (inactive); with M14, 71 µM (inactive). Moreover, the GI50 in the assay on UACC-257 is > 100 µM (inactive).
